Organism: Rattus norvegicus
Assay: Open TG-GATES - Regimen: Single
Assay type: toxicity, organism-based, Sprague-Dawley
Parameters: regimen Single, gender Male, age 6 weeks
Conditions: in vivo, po, route gavage; for APTT / Bas / Eos / Fbg / Hb / Ht / Lym / MCH / MCHC / MCV / Mono / Neu / PT / Plat / RBC / Ret / WBC: tissue Blood; for KIDNEY_L / KIDNEY_R / KIDNEY_TOTAL: tissue Kidney; for LIVER: tissue Liver; for A/G / ALP / ALT / AST / BUN / CRE / Ca / Cl / DBIL / GLC / IP / K / LDH / Na / PL / RALB / TBIL / TC / TG / TP / gamma-GTP: tissue Plasma
[1] = 100 mg/kg, 3 h, dose level Middle
[2] = 100 mg/kg, 6 h, dose level Middle
[3] = 100 mg/kg, 9 h, dose level Middle
[4] = 100 mg/kg, 24 h, dose level Middle
[5] = 300 mg/kg, 3 h, dose level High
[6] = 300 mg/kg, 6 h, dose level High
[7] = 300 mg/kg, 9 h, dose level High
[8] = 300 mg/kg, 24 h, dose level High

## CC[C@H]1[C@@H]2C[C@H]3[C@@H]4N(C)c5ccccc5[C@]45C[C@@H]([C@@H]2[C@H]5O)N3[C@@H]1O [AJMALINE]
[1]
  TERMINAL_BW: 195.2 g
  APTT: 16.3 s
  Bas: 0%
  Eos: 0.6%
  Fbg: 201.2 mg/dL
  Hb: 13.1 g/dL
  Ht: 40.1%
  Lym: 80.2%
  MCH: 21.8 pg
  MCHC: 32.7%
  MCV: 66.7 fL
  Mono: 6.8%
  Neu: 12.4%
  PT: 11.8 s
  Plat: 115.9 x10_4/uL
  RBC: 602.8 x10_4/ul
  Ret: 12.1%
  WBC: 109.1 x10_2/uL
  KIDNEY_L: 0.9 g
  KIDNEY_R: 0.9 g
  KIDNEY_TOTAL: 1.8 g
  LIVER: 9.6 g
  A/G: 2.4
  ALP: 824.8 IU/L
  ALT: 33.4 IU/L
  AST: 64.6 IU/L
  BUN: 11.6 mg/dL
  CRE: 0.4 mg/dL
  Ca: 11.1 mg/dL
  Cl: 103 meq/L
  DBIL: 0.052 mg/dL
  GLC: 198.4 mg/dL
  IP: 9.1 mg/dL
  K: 4.5 meq/L
  LDH: 128 IU/L
  Na: 138.2 meq/L
  PL: 140.4 mg/dL
  RALB: 3.6 g/dL
  TBIL: 0.4 mg/dL
  TC: 75 mg/dL
  TG: 65.6 mg/dL
  TP: 5.2 g/dL
  gamma-GTP: 1.6 IU/L
[2]
  TERMINAL_BW: 187.8 g
  APTT: 17 s
  Bas: 0%
  Eos: 0.6%
  Fbg: 193.4 mg/dL
  Hb: 12.9 g/dL
  Ht: 39%
  Lym: 84.2%
  MCH: 21.8 pg
  MCHC: 33.1%
  MCV: 66 fL
  Mono: 5.8%
  Neu: 9%
  PT: 12.1 s
  Plat: 109.9 x10_4/uL
  RBC: 591.4 x10_4/ul
  Ret: 11.2%
  WBC: 76.5 x10_2/uL
  KIDNEY_L: 0.9 g
  KIDNEY_R: 0.9 g
  KIDNEY_TOTAL: 1.8 g
  LIVER: 8.5 g
  A/G: 2.2
  ALP: 849 IU/L
  ALT: 31.6 IU/L
  AST: 67.8 IU/L
  BUN: 9 mg/dL
  CRE: 0.5 mg/dL
  Ca: 11 mg/dL
  Cl: 102.6 meq/L
  DBIL: 0.044 mg/dL
  GLC: 191 mg/dL
  IP: 9.9 mg/dL
  K: 4.6 meq/L
  LDH: 99.2 IU/L
  Na: 138.4 meq/L
  PL: 140.2 mg/dL
  RALB: 3.5 g/dL
  TBIL: 0.4 mg/dL
  TC: 83.6 mg/dL
  TG: 60.4 mg/dL
  TP: 5.2 g/dL
  gamma-GTP: 1 IU/L
[3]
  TERMINAL_BW: 191.7 g
  APTT: 16.7 s
  Bas: 0%
  Eos: 1.2%
  Fbg: 206 mg/dL
  Hb: 12.9 g/dL
  Ht: 39.2%
  Lym: 75%
  MCH: 21.6 pg
  MCHC: 32.8%
  MCV: 65.6 fL
  Mono: 7.8%
  Neu: 16.2%
  PT: 11.9 s
  Plat: 115.9 x10_4/uL
  RBC: 597 x10_4/ul
  Ret: 9.5%
  WBC: 88.2 x10_2/uL
  KIDNEY_L: 0.9 g
  KIDNEY_R: 1 g
  KIDNEY_TOTAL: 1.9 g
  LIVER: 8.1 g
  A/G: 2.6
  ALP: 786.2 IU/L
  ALT: 33 IU/L
  AST: 67.2 IU/L
  BUN: 11 mg/dL
  CRE: 0.5 mg/dL
  Ca: 10.3 mg/dL
  Cl: 104.6 meq/L
  DBIL: 0.066 mg/dL
  GLC: 190.6 mg/dL
  IP: 10.6 mg/dL
  K: 4.8 meq/L
  LDH: 107 IU/L
  Na: 138 meq/L
  PL: 138 mg/dL
  RALB: 3.7 g/dL
  TBIL: 0.3 mg/dL
  TC: 79.8 mg/dL
  TG: 46 mg/dL
  TP: 5.2 g/dL
  gamma-GTP: 0.2 IU/L
[4]
  TERMINAL_BW: 205.6 g
  APTT: 16.3 s
  Bas: 0%
  Eos: 1%
  Fbg: 205.6 mg/dL
  Hb: 12.7 g/dL
  Ht: 38.5%
  Lym: 81.2%
  MCH: 21.8 pg
  MCHC: 33.1%
  MCV: 65.9 fL
  Mono: 5.8%
  Neu: 12.4%
  PT: 11.6 s
  Plat: 106.5 x10_4/uL
  RBC: 585.2 x10_4/ul
  Ret: 11.1%
  WBC: 105.9 x10_2/uL
  KIDNEY_L: 1 g
  KIDNEY_R: 1 g
  KIDNEY_TOTAL: 2 g
  LIVER: 10.2 g
  A/G: 2.2
  ALP: 869.2 IU/L
  ALT: 39.4 IU/L
  AST: 67.2 IU/L
  BUN: 17.4 mg/dL
  CRE: 0.6 mg/dL
  Ca: 10.9 mg/dL
  Cl: 102.2 meq/L
  DBIL: 0.03 mg/dL
  GLC: 204.2 mg/dL
  IP: 8.4 mg/dL
  K: 4.5 meq/L
  LDH: 105.2 IU/L
  Na: 139.8 meq/L
  PL: 142.6 mg/dL
  RALB: 3.7 g/dL
  TBIL: 0.4 mg/dL
  TC: 79.4 mg/dL
  TG: 81.6 mg/dL
  TP: 5.4 g/dL
  gamma-GTP: 0.8 IU/L
[5]
  TERMINAL_BW: 194.9 g
  APTT: 17 s
  Bas: 0%
  Eos: 0.6%
  Fbg: 201.8 mg/dL
  Hb: 13 g/dL
  Ht: 39.5%
  Lym: 80.6%
  MCH: 21.3 pg
  MCHC: 32.8%
  MCV: 64.8 fL
  Mono: 6.4%
  Neu: 12.6%
  PT: 11.9 s
  Plat: 106.2 x10_4/uL
  RBC: 611.2 x10_4/ul
  Ret: 11.5%
  WBC: 94.5 x10_2/uL
  KIDNEY_L: 0.9 g
  KIDNEY_R: 0.9 g
  KIDNEY_TOTAL: 1.9 g
  LIVER: 9.2 g
  A/G: 2.3
  ALP: 955.4 IU/L
  ALT: 34 IU/L
  AST: 64.6 IU/L
  BUN: 13.2 mg/dL
  CRE: 0.4 mg/dL
  Ca: 10.6 mg/dL
  Cl: 103.6 meq/L
  DBIL: 0.018 mg/dL
  GLC: 184.6 mg/dL
  IP: 8.9 mg/dL
  K: 4.4 meq/L
  LDH: 108.4 IU/L
  Na: 137.8 meq/L
  PL: 135 mg/dL
  RALB: 3.7 g/dL
  TBIL: 0.4 mg/dL
  TC: 71.4 mg/dL
  TG: 57.8 mg/dL
  TP: 5.3 g/dL
  gamma-GTP: 1 IU/L
[6]
  TERMINAL_BW: 195.8 g
  APTT: 17.3 s
  Bas: 0%
  Eos: 1.2%
  Fbg: 211.8 mg/dL
  Hb: 13.1 g/dL
  Ht: 40%
  Lym: 69.2%
  MCH: 21.6 pg
  MCHC: 32.7%
  MCV: 66 fL
  Mono: 8.8%
  Neu: 20.6%
  PT: 11.8 s
  Plat: 109.7 x10_4/uL
  RBC: 607 x10_4/ul
  Ret: 11.3%
  WBC: 82.2 x10_2/uL
  KIDNEY_L: 0.9 g
  KIDNEY_R: 1 g
  KIDNEY_TOTAL: 1.9 g
  LIVER: 9 g
  A/G: 2.1
  ALP: 795 IU/L
  ALT: 32.2 IU/L
  AST: 64.6 IU/L
  BUN: 10.4 mg/dL
  CRE: 0.5 mg/dL
  Ca: 10.8 mg/dL
  Cl: 102.6 meq/L
  DBIL: 0.062 mg/dL
  GLC: 184.6 mg/dL
  IP: 9.2 mg/dL
  K: 4.6 meq/L
  LDH: 93.2 IU/L
  Na: 137.2 meq/L
  PL: 142.6 mg/dL
  RALB: 3.7 g/dL
  TBIL: 0.4 mg/dL
  TC: 77.8 mg/dL
  TG: 40.2 mg/dL
  TP: 5.4 g/dL
  gamma-GTP: 1.8 IU/L
[7]
  TERMINAL_BW: 189 g
  APTT: 16.4 s
  Bas: 0%
  Eos: 1.4%
  Fbg: 215.8 mg/dL
  Hb: 13.2 g/dL
  Ht: 40.1%
  Lym: 72.8%
  MCH: 21.2 pg
  MCHC: 32.9%
  MCV: 64.4 fL
  Mono: 8%
  Neu: 18.4%
  PT: 11.9 s
  Plat: 117.8 x10_4/uL
  RBC: 623.8 x10_4/ul
  Ret: 11.7%
  WBC: 70.8 x10_2/uL
  KIDNEY_L: 0.9 g
  KIDNEY_R: 0.9 g
  KIDNEY_TOTAL: 1.7 g
  LIVER: 8.5 g
  A/G: 2.3
  ALP: 780.6 IU/L
  ALT: 31 IU/L
  AST: 62.8 IU/L
  BUN: 13.2 mg/dL
  CRE: 0.6 mg/dL
  Ca: 10.5 mg/dL
  Cl: 103.6 meq/L
  DBIL: 0.078 mg/dL
  GLC: 178 mg/dL
  IP: 10.1 mg/dL
  K: 5 meq/L
  LDH: 113.8 IU/L
  Na: 138.4 meq/L
  PL: 146.4 mg/dL
  RALB: 3.8 g/dL
  TBIL: 0.4 mg/dL
  TC: 87.8 mg/dL
  TG: 50 mg/dL
  TP: 5.4 g/dL
  gamma-GTP: 1 IU/L
[8]
  TERMINAL_BW: 206.4 g
  APTT: 16 s
  Bas: 0%
  Eos: 1%
  Fbg: 199.4 mg/dL
  Hb: 13 g/dL
  Ht: 39.3%
  Lym: 79.8%
  MCH: 21.6 pg
  MCHC: 33%
  MCV: 65.5 fL
  Mono: 6.8%
  Neu: 12.6%
  PT: 11.8 s
  Plat: 108 x10_4/uL
  RBC: 599.6 x10_4/ul
  Ret: 9.9%
  WBC: 77.5 x10_2/uL
  KIDNEY_L: 1 g
  KIDNEY_R: 1 g
  KIDNEY_TOTAL: 1.9 g
  LIVER: 9.9 g
  A/G: 2.2
  ALP: 860.6 IU/L
  ALT: 37.4 IU/L
  AST: 69 IU/L
  BUN: 18 mg/dL
  CRE: 0.6 mg/dL
  Ca: 11 mg/dL
  Cl: 101.4 meq/L
  DBIL: 0.03 mg/dL
  GLC: 196.4 mg/dL
  IP: 9.1 mg/dL
  K: 4.6 meq/L
  LDH: 109.4 IU/L
  Na: 139.4 meq/L
  PL: 149.4 mg/dL
  RALB: 3.7 g/dL
  TBIL: 0.4 mg/dL
  TC: 83.8 mg/dL
  TG: 99 mg/dL
  TP: 5.3 g/dL
  gamma-GTP: 0.8 IU/L

Source: ChEMBL document CHEMBL3885861, “Open TG-GATES”
